Results reported in patent US9963448B2, “Bicyclic inhibitors of PAD4” (Padlock Therapeutics, Inc., priority 2015, dated 2018).
Where a name gives a salt, the structure may show the parent alone. Read-outs that look alike come from different tables or passages of the source.

What was measured:
[1] = target: hPAD4 (Homo sapiens, UniProt Q9UM07); experiment: hPAD4 RFMS (RapidFire mass spectrometry) PAD4 inhibition assay; type: biochemical; details: hPAD4 enzyme, RFMS readout;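 for hPAD4 RFMS pIC50: grade E means pIC50 at most 4 and F means pIC50 4.0 to 5.0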
Description: (§1) Compounds of the present invention were assayed as inhibitors of PAD4 using the assay protocol described below.
(§2) Compound stock solutions were stored at RT. […] Final assay conditions were as follows:
(§3) Total incubation time: 65 mins at 37° C.
(§4) Stop solution: 40 μl 5% TCA in ACN
(§5) The compound numbers correspond to the compound numbers in Table 1. […] The term pIC50=−log(IC50). […] “NA” stands for “not assayed.”

[2] = target: mPAD4 (Mus musculus, UniProt Q9Z183); experiment: mPAD4 RFMS PAD4 inhibition assay; type: biochemical; details: mPAD4, RFMS readout;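 for mPAD4 RFMS pIC50: grade E means pIC50 at most 4 and F means pIC50 4.0 to 5.0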
Description: as §1, §2, §3, §4, §5

[3] = pIC50=−log(IC50), read-out: hPAD4 RFMS pIC50 (converted)
[4] = pIC50=−log(IC50), read-out: mPAD4 RFMS pIC50 (converted)

Sequence of hPAD4 (Q9UM07 whole entry): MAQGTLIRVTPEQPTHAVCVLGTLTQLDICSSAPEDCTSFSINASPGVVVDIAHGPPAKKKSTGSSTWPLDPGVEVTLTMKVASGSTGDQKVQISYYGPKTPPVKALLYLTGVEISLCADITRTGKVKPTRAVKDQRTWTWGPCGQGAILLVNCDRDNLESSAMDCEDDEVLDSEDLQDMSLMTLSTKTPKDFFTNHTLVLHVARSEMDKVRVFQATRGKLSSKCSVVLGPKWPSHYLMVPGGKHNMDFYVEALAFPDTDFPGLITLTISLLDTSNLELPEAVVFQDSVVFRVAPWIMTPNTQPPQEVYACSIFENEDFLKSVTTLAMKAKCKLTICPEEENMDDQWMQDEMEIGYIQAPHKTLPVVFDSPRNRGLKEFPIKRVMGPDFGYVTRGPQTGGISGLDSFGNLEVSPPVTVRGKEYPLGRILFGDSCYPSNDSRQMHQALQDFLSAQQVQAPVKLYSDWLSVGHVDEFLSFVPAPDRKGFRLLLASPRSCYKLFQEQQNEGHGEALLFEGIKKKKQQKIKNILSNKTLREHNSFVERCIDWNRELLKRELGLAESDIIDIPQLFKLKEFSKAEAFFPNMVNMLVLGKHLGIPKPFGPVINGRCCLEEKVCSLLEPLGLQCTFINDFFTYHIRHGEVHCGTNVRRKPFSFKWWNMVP
Sequence of mPAD4 (Q9Z183 whole entry): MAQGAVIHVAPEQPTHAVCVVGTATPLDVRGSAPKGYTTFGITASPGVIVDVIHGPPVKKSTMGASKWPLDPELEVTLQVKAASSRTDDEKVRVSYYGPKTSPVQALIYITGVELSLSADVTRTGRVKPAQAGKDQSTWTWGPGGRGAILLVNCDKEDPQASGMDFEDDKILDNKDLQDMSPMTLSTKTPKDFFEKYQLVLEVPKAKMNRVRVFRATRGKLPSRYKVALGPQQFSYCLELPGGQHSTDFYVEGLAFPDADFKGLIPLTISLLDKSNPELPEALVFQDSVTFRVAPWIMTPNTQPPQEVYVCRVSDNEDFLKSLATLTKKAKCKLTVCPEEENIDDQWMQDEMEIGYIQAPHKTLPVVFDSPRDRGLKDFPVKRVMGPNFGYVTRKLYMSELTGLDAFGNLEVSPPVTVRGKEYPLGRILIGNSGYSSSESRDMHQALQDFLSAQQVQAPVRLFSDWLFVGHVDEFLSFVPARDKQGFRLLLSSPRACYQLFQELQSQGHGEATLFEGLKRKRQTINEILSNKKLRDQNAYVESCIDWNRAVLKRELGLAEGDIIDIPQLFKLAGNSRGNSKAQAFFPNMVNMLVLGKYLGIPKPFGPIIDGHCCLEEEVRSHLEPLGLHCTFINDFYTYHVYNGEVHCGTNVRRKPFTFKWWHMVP

Row | SMILES | IC50 [1, 3] | IC50 ([1]; read-out: hPAD4 RFMS IC50) | IC50 [2, 4] | IC50 ([2]; read-out: mPAD4 RFMS IC50) | hPAD4 RFMS pIC50 ([1]; pIC50=−log(IC50)) | mPAD4 RFMS pIC50 ([2]; pIC50=−log(IC50))
1 | COc1ccc2cc(-c3nc4cc(C(=O)N5C[C@H](N)C[C@@H](F)C5)cc(OC(F)F)c4n3C)n(CC3CC3)c2n1 [Compound I-109, (3R,5R)-1-{2-[1-(cyclopropylmethyl)-6-methoxy-1H-pyrrolo[2,3-b]pyridin-2-yl]-7-(difluoromethoxy)-1-methyl-1H-1,3-benzodiazole-5-carbonyl}-5-fluoropiperidin-3-amine] | < 1 µM | < 1 µM | < 1 µM | < 1 µM | – | –
2 | Cn1c(-c2cc3cccnc3n2CC2CC(C)(O)C2)nc2cc(C(=O)N3CCC[C@@H](N)C3)ccc21 (stereo partly drawn) [Compound I-110, 3-[(2-{5-[(3R)-3-Aminopiperidine-1-carbonyl]-1-methyl-1H-1,3-benzodiazol-2-yl}-1H-pyrrolo[2,3-b]pyridin-1-yl)methyl]-1-methylcyclobutan-1-ol] | 1 to 10 µM | 1 to 5 µM | 10 to 100 µM | > 10 µM | – | –
3 | CCOc1cc(C(=O)N2CC(N)CCC2C)cc2nc(-c3cc4cccnc4n3CC3CC3)n(C)c12 (stereo not drawn) [Compound I-111] | 1 to 10 µM | 1 to 5 µM | < 1 µM | < 1 µM | – | –
4 | Cn1c(-c2cc3cccnc3n2CC2CC2)nc2cc(C(=O)N3CCC[C@@H](N)C3)cc(C(N)=O)c21 [Compound I-112, 5-[(3R)-3-aminopiperidine-1-carbonyl]-2-[1-(cyclopropylmethyl)-1H-pyrrolo[2,3-b]pyridin-2-yl]-1-methyl-1H-1,3-benzodiazole-7-carboxamide hydrochloride] | 1 to 10 µM | 5 to 10 µM | 1 to 10 µM | 1 to 5 µM | – | –
5 | COc1cc(C(=O)N2CCC[C@@H](N)C2)cc2nc(-c3cc4cccnc4n3CC3CC(C)(O)C3)n(C)c12 (stereo partly drawn) [Compound I-113] | 1 to 10 µM | 1 to 5 µM | 1 to 10 µM | 5 to 10 µM | – | –
6 | COc1cc(C(=O)N2CCC[C@@H](N)C2)cc2nc(-c3cc4cccnc4n3CC3CC3)n(CC3CC(C)(O)C3)c12 (stereo partly drawn) [Compound I-114] | < 1 µM | < 1 µM | < 1 µM | < 1 µM | – | –
7 | COc1cc(C(=O)N2CC3CCC2C(N)C3)cc2nc(-c3cc4cccnc4n3CC3CC3)n(C)c12 (stereo not drawn) [Compound I-115] | < 1 µM | < 1 µM | < 1 µM | < 1 µM | – | –
8 | CCn1c(-c2cc3cccnc3n2CC2CC2)nc2cc(C(=O)N3CCC[C@@H](N)C3)cc(OC)c21 [Compound I-119, (3R)-1-{2-[1-(cyclopropylmethyl)-1H-pyrrolo[2,3-b]pyridin-2-yl]-1-ethyl-7-methoxy-1H-1,3-benzodiazole-5-carbonyl}piperidin-3-amine] | < 1 µM | < 1 µM | < 1 µM | < 1 µM | – | –
9 | COc1cc(C(=O)N2CC[C@@H](OC)[C@@H](N)C2)cc2nc(-c3cc4cccnc4n3CC3CC3)n(C)c12 [Compound I-121] | < 1 µM | < 1 µM | < 1 µM | < 1 µM | – | –
10 | COc1cc(C(=O)N2CCOC3(CNC3)C2)cc2nc(-c3cc4cccnc4n3CC3CC3)n(C)c12 [Compound I-122] | – | > 10 µM | > 100 µM | > 10 µM | E/F | –
11 | COc1ccc2cc(-c3nc4cc(C(=O)N5C[C@H](N)C[C@@H](F)C5)cc(OC)c4n3C)n(CC3CC3)c2n1 [Compound I-123] | < 1 µM | < 1 µM | < 1 µM | < 1 µM | – | –
12 | CO[C@@H]1CCN(C(=O)c2cc(OC(F)F)c3c(c2)nc(-c2cc4cccnc4n2CC2CC2)n3C)C[C@@H]1N [Compound I-124] | 10 to 100 µM | > 10 µM | 1 to 10 µM | 5 to 10 µM | – | –
13 | COc1cc(C(=O)N2C[C@H]3COC[C@@]3(CN)C2)cc2nc(-c3cc4cccnc4n3CC3CC3)n(C)c12 [Compound I-125] | 10 to 100 µM | > 10 µM | 10 to 100 µM | > 10 µM | – | –
14 | COc1cc(C(=O)N2C[C@@H]3COC[C@]3(CN)C2)cc2nc(-c3cc4cccnc4n3CC3CC3)n(C)c12 [Compound I-126] | 10 to 100 µM | > 10 µM | 10 to 100 µM | > 10 µM | – | –
15 | COc1ccc2cc(-c3nc4cc(C(=O)N5CC[C@@H](OC)[C@@H](N)C5)ccc4n3C)n(CC3CC3)c2n1 [Compound I-127] | 1 to 10 µM | 1 to 5 µM | 1 to 10 µM | 1 to 5 µM | – | –
16 | Cn1c(-c2cc3cccnc3n2CC2CC2)nc2cc(C(=O)N3CCC[C@@H](N)C3)cc(CO)c21 [Compound I-128, {5-[(3R)-3-aminopiperidine-1-carbonyl]-2-[1-(cyclopropylmethyl)-1H-pyrrolo[2,3-b]pyridin-2-yl]-1-methyl-1H-1,3-benzodiazol-7-yl}methanol] | 1 to 10 µM | 1 to 5 µM | 1 to 10 µM | 1 to 5 µM | – | –
17 | COc1cc(C(=O)N2CC3CCC2C(N)C3)cc2nc(-c3cc4cccnc4n3CC3CC3)n(C)c12 (stereo not drawn) [Compound I-129] | 1 to 10 µM | 1 to 5 µM | 1 to 10 µM | 1 to 5 µM | – | –
18 | COc1ccc2cc(-c3nc4cc(C(=O)N5CC[C@H](OC)[C@H](N)C5)ccc4n3C)n(CC3CC3)c2n1 [Compound I-130] | < 1 µM | < 1 µM | 1 to 10 µM | 1 to 5 µM | – | –

Row | SMILES | IC50 [1, 3] | IC50 ([1]; read-out: hPAD4 RFMS IC50) | IC50 [2, 4] | IC50 ([2]; read-out: mPAD4 RFMS IC50) | hPAD4 RFMS pIC50 ([1]; pIC50=−log(IC50)) | mPAD4 RFMS pIC50 ([2]; pIC50=−log(IC50))
19 | Cn1c(-c2cc3cccnc3n2CC2CC2)nc2cc(C(=O)N3CCC[C@@H](N)C3)cc(S(C)(=O)=O)c21 [Compound I-131, (3R)-1-{2-[1-(cyclopropylmethyl)-1H-pyrrolo[2,3-b]pyridin-2-yl]-7-methanesulfonyl-1-methyl-1H-1,3-benzodiazole-5-carbonyl}piperidin-3-amine] | 1 to 10 µM | 5 to 10 µM | 10 to 100 µM | > 10 µM | – | –
20 | COc1cc(C(=O)N2CCC[C@@H](N)C2)cc2nc(-c3cc4cc(C#N)cnc4n3CC3CC3)n(C)c12 [Compound I-132] | < 1 µM | < 1 µM | 1 to 10 µM | 1 to 5 µM | – | –
21 | CO[C@@H]1CCN(C(=O)c2cc(OC(F)F)c3c(c2)nc(-c2cc4cccnc4n2CC2CC2)n3C)C[C@@H]1N [Compound I-133] | – | > 10 µM | – | 1 to 5 µM | F (pIC50 of 4.0-5.0) | G (pIC50 of 5.0-6.0)
22 | CO[C@H]1CCN(C(=O)c2cc(OC(F)F)c3c(c2)nc(-c2cc4cccnc4n2CC2CC2)n3C)C[C@H]1N [Compound I-134] | 1 to 10 µM | 1 to 5 µM | < 1 µM | < 1 µM | – | –
23 | CCn1c(-c2nc3cc(C(=O)N4CCC[C@@H](N)C4)cc(OC)c3n2C)cc2ccc(OC)nc21 [Compound I-135] | < 1 µM | < 1 µM | < 1 µM | < 1 µM | – | –
24 | COCCn1c(-c2nc3cc(C(=O)N4CCC[C@@H](N)C4)cc(OC)c3n2C)cc2cccnc21 [Compound I-137] | 1 to 10 µM | 1 to 5 µM | 1 to 10 µM | 1 to 5 µM | – | –
25 | CCn1c(-c2nc3cc(C(=O)N4C[C@@H](N)CC[C@H]4C)cc(OC)c3n2C)cc2cccnc21 [Compound I-138] | < 1 µM | < 1 µM | < 1 µM | < 1 µM | – | –
26 | CCn1c(-c2nc3cc(C(=O)N4C[C@H]5CC[C@@H]4[C@@H]5N)cc(OC)c3n2C)cc2ccc(OC)nc21 [Compound I-139] | < 1 µM | < 1 µM | < 1 µM | < 1 µM | – | –
27 | CCn1c(-c2nc3cc(C(=O)N4C[C@@H]5CC[C@H]4[C@H]5N)cc(OC)c3n2C)cc2ccc(OC)nc21 [Compound I-140] | 1 to 10 µM | 5 to 10 µM | 10 to 100 µM | > 10 µM | – | –
28 | COc1cc(C(=O)N2CC[C@H](OC)[C@H](N)C2)cc2nc(-c3cc4cccnc4n3CC3CC3)n(C)c12 [Compound I-142] | 1 to 10 µM | 1 to 5 µM | 1 to 10 µM | 1 to 5 µM | – | –
29 | COc1cc(C(=O)N2CCC[C@@H](N)C2)cc2nc(-c3cc4cccnc4n3CCF)n(C)c12 [Compound I-146] | 1 to 10 µM | 1 to 5 µM | < 1 µM | < 1 µM | – | –
30 | CCCn1c(-c2nc3cc(C(=O)N4CCC[C@@H](N)C4)cc(OC)c3n2C)cc2cccnc21 [Compound I-149] | < 1 µM | < 1 µM | < 1 µM | < 1 µM | – | –
31 | CCn1c(-c2nc3cc(C(=O)N4CCC[C@@H](N)C4)cc(F)c3n2CC)cc2cccnc21 [Compound I-151] | 1 to 10 µM | 1 to 5 µM | 1 to 10 µM | 5 to 10 µM | – | –
32 | CCn1c(-c2nc3cc(C(=O)N4C[C@H]5CC[C@@H]4[C@@H]5N)ccc3n2C)cc2cccnc21 [Compound I-152] | 1 to 10 µM | 1 to 5 µM | 1 to 10 µM | 5 to 10 µM | – | –
33 | CCCn1c(-c2nc3cc(C(=O)N4C[C@H]5CC[C@@H]4[C@@H]5N)cc(OC)c3n2C)cc2cccnc21 [Compound I-154] | < 1 µM | < 1 µM | < 1 µM | < 1 µM | – | –
34 | CCn1c(-c2nc3cc(C(=O)N4C[C@H]5CC[C@@H]4[C@@H]5N)cc(OC)c3n2C[C@H]2C[C@@](C)(O)C2)cc2cccnc21 [Compound I-155] | < 1 µM | < 1 µM | < 1 µM | < 1 µM | – | –
35 | COc1cc(C(=O)N2C[C@H]3CC[C@@H]2[C@@H]3N)cc2nc(-c3cc4cccnc4n3CCF)n(C)c12 [Compound I-157] | 1 to 10 µM | 1 to 5 µM | 1 to 10 µM | 1 to 5 µM | – | –
36 | CCn1c(-c2nc3cc(C(=O)N4C[C@H]5CC[C@@H]4[C@@H]5N)cc(OC)c3n2C)cc2cccnc21 [Compound I-159] | < 1 µM | < 1 µM | < 1 µM | < 1 µM | – | –
